Data published in patent publication US10420815B2, “Combinational therapy for synergistic inhibition of gram-positive and gram-negative bacteria” (priority 2015, dated 2019).
Entries after “also recorded” stand apart in the source; their conditions may differ. Read-outs that look alike come from different tables or passages of the source.

Assays:
MRSA USA300 = test: Biofilm assay (crystal violet); assay type: cell-based, Staphylococcus aureus; settings: LG at different concentrations plus 10^−4 U bacitracin; 18 h; listed as LG
Experimental: Biofilm assays were performed as described previously^30. Briefly, overnight culture of MRSA was diluted 1:100 in TS broth and was grown in a 96-well microtiter plate in the presence or absence (a negative control) of combinations of bacitracin and lauryl gallate at different concentrations. After aerobic incubation at 37° C. for 18 h, biofilms were washed and stained with crystal violet. After washing unbound crystal violet, the absorbance at 630 nm was measured with FLUOstar Omega® (BMG Labtech).

MRSA 3823 = test: microbe, parasite or virus in culture; assay type: cell-based, Staphylococcus aureus; settings: Staphylococcus aureus; MRSA 3823 (human/nose); read-out: MIC
How it was run: (§1)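 Clinical MRSA isolates underwent broth microdilution per CLSI M7-A7, starting from 1.5×10^5 CFU ml^−1, with serially diluted alkyl gallates and bacitracin incubated at 37° C for 24 h to give MIC. MBC came from spotting MIC cultures onto MH agar, incubated aerobically at 37° C.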

MRSA 3095 = test: microbe, parasite or virus in culture; assay type: cell-based, Staphylococcus aureus; settings: Staphylococcus aureus; MRSA 3095 (human/skin); read-out: MIC
How it was run: as §1

MRSA 3799 = test: microbe, parasite or virus in culture; assay type: cell-based, Staphylococcus aureus; settings: Staphylococcus aureus; MRSA 3799 (human/nose); read-out: MIC
How it was run: as §1

MRSA 3903 = test: microbe, parasite or virus in culture; assay type: cell-based, Staphylococcus aureus; settings: Staphylococcus aureus; MRSA 3903 (human/skin); read-out: MIC
How it was run: as §1

MRSA 3795 = test: microbe, parasite or virus in culture; assay type: cell-based, Staphylococcus aureus; settings: Staphylococcus aureus; MRSA 3795 (human/nose); read-out: MIC
How it was run: as §1

MRSA 3876 = test: microbe, parasite or virus in culture; assay type: cell-based, Staphylococcus aureus; settings: Staphylococcus aureus; MRSA 3876 (human/skin); read-out: MIC
How it was run: as §1

MRSA 3865 = test: microbe, parasite or virus in culture; assay type: cell-based, Staphylococcus aureus; settings: Staphylococcus aureus; MRSA 3865 (human/skin); read-out: MIC
How it was run: as §1

MRSA 3A585 = test: microbe, parasite or virus in culture; assay type: cell-based, Staphylococcus aureus; settings: Staphylococcus aureus; MRSA 3A585 (human/blood); read-out: MIC
How it was run: as §1

MSSA (ATCC 29213) = test: MIC (broth dilution) and MBC (spotting) of phenolic antioxidants and bacitracin; assay type: cell-based, Staphylococcus aureus; settings: for MIC: antioxidant alone
How it was run: (§2)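 CLSI M7-A7 broth microdilution in MH broth, 1.5×10^5 CFU ml^−1 inoculum, serial dilutions, 37° C for 24 h gave MICs. MBC: overnight cultures with antioxidants at 0.5 μg/ml plus bacitracin at various concentrations were spotted onto MH agar and incubated aerobically at 37° C to check viability.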

[1] = system: Salmonella enterica Typhimurium LT2; test: MIC and MBC, alone and bacitracin/alkyl gallate combinations; assay type: cell-based
From the text: (§3) MRSA (ATCC 33593), MSSA (ATCC 29213), and MRSA USA300 (BAA-1680) strains were purchased from the American Type Culture Collection (ATCC; Manassas, Va.). Eight clinical isolates of MRSA were obtained from the Culture Collection of Antimicrobial Resistant Microbes, Korea National Research Resource Center (KNRRC). Salmonella enterica Typhimurium LT2 was purchased from ATCC, and Escherichia coli O157:H7 is a kind gift from Dr. Sangryeol Ryu (Seoul National University, South Korea). All S. aureus strains were maintained in Trypticase Soy (TS) medium, and E. coli O157:H7 and Salmonella were routinely grown aerobically on Luria-Bertani (LB) media at 37° C. For measuring growth kinetics, an overnight culture of MRSA in Mueller-Hinton (MH) broth was diluted 100-fold in fresh MH broth and cultured until early exponential phase. The culture (200 μl) was transferred to each well of a sterile 96-well plate and incubated at 37° C. with bacitracin alone, alkyl gallate alone, and combination of bacitracin/alkyl gallates at various concentrations. The optical density at 600 nm (OD600) was measured every hour with FLUOstar® Omega (BMG Labtech, Germany).
(§4) Broth micro dilution assays were performed to determine the minimum inhibitory concentrations (MIC) accordance to the M7-A7 protocol of the Clinical and Laboratory Standards Institute (CLSI) guidelines^28. The susceptibility test was carried out with an initial bacterial inoculum of 1.5×10^5 CFU ml^−1. Alkyl gallates and bacitracin were serially diluted in a polystyrene 96 well plate and the plate was incubated at 37° C. for 24 h. Minimum bactericidal concentration (MBC) was determined by spotting 10 μl of cultures from MIC tests onto MH agar and incubated aerobically at 37° C.
(§5) MIC and MBC were measured as described above. MIC and MBC data are shown in Table 5 for both the Salmonella and the E. coli strain tested. The tested strains were highly resistant to bacitracin.

Escherichia coli O157:H7 = test: microbe, parasite or virus in culture; assay type: cell-based
From the text: as §3, §4, §5

MRSA USA300 (BAA-1680) [2] = test: microbe, parasite or virus in culture; assay type: cell-based, Staphylococcus aureus
From the text: as §3, §4

MRSA (ATCC 33593) = test: microbe, parasite or virus in culture; assay type: cell-based, Staphylococcus aureus; settings: MRSA; for MIC: antioxidant alone
How it was run: as §2

MRSA USA300 (BAA-1680) [3] = test: Growth kinetics (OD600) with bacitracin, alkyl gallates and combinations; assay type: cell-based, Staphylococcus aureus; settings: bacitracin 0.001 U to 100 U
From the text: as §3

[4] = system: MRSA (normal MRSA strain, not USA300); test: MRSA growth (optical density) with bacitracin and phenolic antioxidants; assay type: cell-based, Staphylococcus aureus
[5] = Staphylococcus aureus, read-out: MIC
[6] = antioxidant 0.5 μg/ml, compared to bacitracin alone
[7] = Salmonella enterica, S. Typhimurium, agent alone

In the case of `CCCCCCCCCCCCOC(=O)c1cc(O)c(O)c(O)c1` [Lauryl gallate, lauryl gallate], the biofilm formation (MRSA USA300) is reported as “substantial reduction in the level of biofilm formation; also recorded: significant anti-biofilm effects”, the MIC (MRSA 3823) is reported as 64 µg/mL and the MIC (MRSA 3095) is reported as 64 µg/mL. The MIC (MRSA 3799) was 32 µg/mL, the MIC (MRSA 3903) was 64 µg/mL and the MIC (MRSA 3795) was 64 µg/mL. It also gave an MIC (MRSA 3876) of 64 µg/mL, an MIC (MRSA 3865) of 64 µg/mL and an MIC (MRSA 3A585) of 64 µg/mL. The MIC (MSSA (ATCC 29213); [5]) was 64 µg/mL, the “fold decrease of bacitracin MBC by antioxidant” value (MSSA (ATCC 29213); [6]) was > 1,000 fold and the MIC (MSSA (ATCC 29213)) was 128 µg/mL. The MBC [1, 7] was over 1020 µg/mL, the MIC [1, 7] was over 1020 µg/mL and the “synergistic effect with bacitracin” value ([1]; Salmonella, FIG. 10) was “more moderate synergistic effects”. The “synergistic effect with bacitracin” value (Escherichia coli O157:H7; E. coli O157:H7, FIG. 10) was “more moderate synergistic effects”, the MBC (Escherichia coli O157:H7; Escherichia coli) was 1020 µg/mL and the MIC (Escherichia coli O157:H7; Escherichia coli) was 512 µg/mL. For the same molecule, the “MBC of bacitracin in combination with alkyl gallate” value (MRSA USA300 (BAA-1680) [2]; 5 μg ml^−1 alkyl gallate) was 10^−1 U, the “fold decrease in bacitracin MBC” value (MRSA USA300 (BAA-1680) [2]; 5 μg ml^−1 alkyl gallate, versus bacitracin MBC 200 U) was 2,000 fold and the “bactericidal activity in combination with bacitracin” value (MRSA USA300 (BAA-1680) [2]; FIG. 2) was “synergistic antimicrobial activity”. The MBC (MRSA USA300 (BAA-1680) [2]; agent alone) was 64 µg/mL, the MIC (MRSA USA300 (BAA-1680) [2]; agent alone) was 32 µg/mL and the “fold decrease of bacitracin MBC by antioxidant” value (MRSA (ATCC 33593); [6]) was 512 fold. The MIC (MRSA (ATCC 33593)) was 128 µg/mL, the MIC (MRSA (ATCC 33593); [5]) was 64 µg/mL and the “growth inhibition by bacitracin in combination with alkyl gallate” value (MRSA USA300 (BAA-1680) [3]) was “significant growth inhibition”. The “growth of MRSA with bacitracin plus antioxidant” value ([4]; bacitracin 0.002 μg/mL, antioxidant 0.5 μg/mL, FIG. 6) was “significantly inhibited the growth of MRSA”, the “optical density of MRSA after 18 h culture: inhibition of growth in combination with bacitracin” value ([4]; bacitracin 0.002 μg/ml (ca. 0.0002 U), antioxidant 0.5 μg/ml, 18 h, FIG. 8) was “significantly inhibited MRSA” and the “concentration of lauryl gallate alone that inhibited MRSA growth” value ([4]; lauryl gallate 0.5 μg/mL to 256 μg/mL, FIG. 7C) was 256 µg/mL. For the same molecule, the “MRSA growth inhibition by lauryl gallate in combination with bacitracin” value ([4]; lauryl gallate 0.5 μg/ml, bacitracin 0.0019 μg/mL to 1 μg/mL, FIG. 7D) was “synergistically inhibited MRSA growth”.
